Consider 59 sequences from the supplement of paper PMC11208160.
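Further: IS621 recombinase and bridge RNA in Escherichia coli cells.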

This series can be described thus: recombinant barcode read abundance after kanamycin selection (control-corrected) (log10(CPM+1)); higher = more efficient recombination; sequences stand for … in AGTGCAGAGAAAATCGGCCAGTTTTCTCTGCCTGCAGTCCGCATGCCGT…AGATTTATGCAGCGGACTGCCTTTCTCCCAAAGTGATAAACCGGACAGTATCATGGACCGGTTTTCCCGGTAATCCGTATTTGCAAGGTTGGTTTCACT; site = the 11-nt target. The gist of the method:
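Targets were screened in pooled form in E. coli against IS621 bridge RNA target-binding loops. Recombination efficiency is based on barcode counts at recombinant junctions in counts per million, averaged and corrected for the control. Numbers are shown as log10(CPM+1), with duplicate plates on chloramphenicol/ampicillin LB agar (control) or chloramphenicol/ampicillin/kanamycin with 0.1 mM IPTG.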
Turning to “TATGTAGCTTGGGTTCTAACCTGTTGCCG (site TATGTAGCTGG)”, the “recombinant barcode read abundance (log10)” value amounted to 0.107.

For the sequence “TATGTAGCTTGGGTTCTAACCTGTTGCCG (site TATGTAGCTTG)”, the “recombinant barcode read abundance (log10)” value came out at 0.0858.

Consider “TATGTAGCTTGGGTTCTAACCTGTTGCCT (site TATGTAGCTAG)”, for which the “recombinant barcode read abundance (log10)” value was 0.677. Turning to “TATGTAGCTTGGGTTCTAACCTGTTGCCT (site TATGTAGCTCG)”, the “recombinant barcode read abundance (log10)” value was found to be 0.353.

Turning to “TATGTAGCTTGGGTTCTAACCTGTTGCCT (site TATGTAGCTGG)”, the “recombinant barcode read abundance (log10)” value turned out to be 0.103.

For “TATGTAGCTTGGGTTCTAACCTGTTGCCT (site TATGTAGCTTG)”, the “recombinant barcode read abundance (log10)” value was found to be 0.129. The result for “TATTAACCTTGGGTTCTAACCTGTTGCCT (site TATTAACCTAG)” reads 0.329; that for “TATTAACCTTGGGTTCTAACCTGTTGCCT (site TATTACCCTAG)”, 0.117; that for “TATTAACCTTGGGTTCTAACCTGTTGCCT (site TATTAGCCTAG)”, 0.0897. The figure for “TATTAACCTTGGGTTCTAACCTGTTGCCT (site TATTATCCTAG)” is 0.0539; for “TATTAGCCTTGGGTTCTAACCTGTTGCCT (site TATTAACCTAG)” it is 0.138; for “TATTAGCCTTGGGTTCTAACCTGTTGCCT (site TATTACCCTAG)” it is 0.283. The figure for “TATTAGCCTTGGGTTCTAACCTGTTGCCT (site TATTAGCCTAG)” is 0.123. In the case of “TATTAGCCTTGGGTTCTAACCTGTTGCCT (site TATTATCCTAG)”, the “recombinant barcode read abundance (log10)” value was found to be 0.27. “TATTATCCTTGGGTTCTAACCTGTTGCCT (site TATTAACCTAG)”: the “recombinant barcode read abundance (log10)” value is 0.341.

Take “TATTATCCTTGGGTTCTAACCTGTTGCCT (site TATTACCCTAG)”: the “recombinant barcode read abundance (log10)” value was found to be 0.0929. As to “TATTATCCTTGGGTTCTAACCTGTTGCCT (site TATTAGCCTAG)”, the “recombinant barcode read abundance (log10)” value worked out at 0.121. With “TATTATCCTTGGGTTCTAACCTGTTGCCT (site TATTATCCTAG)”, the “recombinant barcode read abundance (log10)” value was 0.0487.

As for “TATTCTACTTGGGTTCTAACCTGTTGCGA (site TATTCTACTAC)”, the “recombinant barcode read abundance (log10)” value is 0.0359.

Consider “TATTCTACTTGGGTTCTAACCTGTTGCGA (site TATTCTACTCC)”, for which the “recombinant barcode read abundance (log10)” value was 0.0347. The figure for “TATTCTACTTGGGTTCTAACCTGTTGCGA (site TATTCTACTGC)” is 0.165; for “TATTCTACTTGGGTTCTAACCTGTTGCGA (site TATTCTACTTC)” it is 0.0707; for “TATTCTCCTTGGGTTCTAACCTGTTGCAT (site TATTCTCCTAA)” it is 0.0409. The result for “TATTCTCCTTGGGTTCTAACCTGTTGCAT (site TATTCTCCTAC)” reads 0.235; that for “TATTCTCCTTGGGTTCTAACCTGTTGCAT (site TATTCTCCTAG)”, 0.00827; that for “TATTCTCCTTGGGTTCTAACCTGTTGCAT (site TATTCTCCTAT)”, 0.186. Turning to “TATTGGACTTGGGTTCTAACCTGTTGCAA (site TATTGGACTAT)”, the “recombinant barcode read abundance (log10)” value came to 0.218. The result for “TATTGGACTTGGGTTCTAACCTGTTGCAA (site TATTGGACTCT)” reads 0.017; that for “TATTGGACTTGGGTTCTAACCTGTTGCAA (site TATTGGACTGT)”, 0.0217; that for “TATTGGACTTGGGTTCTAACCTGTTGCAA (site TATTGGACTTT)”, 0.303. For the sequence “TATTGTCCTTGGGTTCTAACCTGTTGCCT (site TATAGTACTAG)”, the “recombinant barcode read abundance (log10)” value was 0.0216. On to “TATTGTCCTTGGGTTCTAACCTGTTGCCT (site TATTGTCCTAG)”, for which the “recombinant barcode read abundance (log10)” value was 0.124. The result for “TATTTGTCTTGGGTTCTAACCTGTTGCTA (site TAGTCGTCTTA)” reads 0.148. The figure for “TATTTGTCTTGGGTTCTAACCTGTTGCTA (site TATTTGTCTTA)” is 0.486; for “TCAAAGGCTTGGGTTCTAACCTGTTGCCT (site TCAAAGGCTAG)” it is 0.0805. For the sequence “TCAAAGGCTTGGGTTCTAACCTGTTGCCT (site TCCAAGGCTAG)”, the “recombinant barcode read abundance (log10)” value turned out to be 0.238. As to “TCAAAGGCTTGGGTTCTAACCTGTTGCCT (site TCGAAGGCTAG)”, the “recombinant barcode read abundance (log10)” value was 0.13. The figure for “TCAAAGGCTTGGGTTCTAACCTGTTGCCT (site TCTAAGGCTAG)” is 0.0999. The figure for “TCAAATTCTTGGGTTCTAACCTGTTGCCT (site TCAAATTCTAG)” is 0.0401. The result for “TCAAATTCTTGGGTTCTAACCTGTTGCCT (site TCACATTCTAG)” reads 0.0721. “TCAAATTCTTGGGTTCTAACCTGTTGCCT (site TCAGATTCTAG)”: the “recombinant barcode read abundance (log10)” value stood at 0.108. The result for “TCAAATTCTTGGGTTCTAACCTGTTGCCT (site TCATATTCTAG)” reads 0.0151; that for “TCACAGACTTGGGTTCTAACCTGTTGCCG (site GTTAGCCCTAT)”, 0.11.

As for “TCACAGACTTGGGTTCTAACCTGTTGCCG (site TCACAGACTCG)”, the “recombinant barcode read abundance (log10)” value is 1.2. Take “TCACGGTCTTGGGTTCTAACCTGTTGCCT (site TCACGGTCTAG)”: the “recombinant barcode read abundance (log10)” value is 0.598. “TCACGGTCTTGGGTTCTAACCTGTTGCCT (site TCTCGGTCTAG)”: the “recombinant barcode read abundance (log10)” value was 0.0701. The figure for “TCACGTCCTTGGGTTCTAACCTGTTGCAT (site TCACGTCCTAA)” is 0.0411; for “TCACGTCCTTGGGTTCTAACCTGTTGCAT (site TCACGTCCTAC)” it is 0.187; for “TCACGTCCTTGGGTTCTAACCTGTTGCAT (site TCACGTCCTAG)” it is 0.745.

As for “TCACGTCCTTGGGTTCTAACCTGTTGCAT (site TCACGTCCTAT)”, the “recombinant barcode read abundance (log10)” value is 0.576. The figure for “TCACGTCCTTGGGTTCTAACCTGTTGCCT (site TCACGTCCTAA)” is 0.403.

Regarding “TCACGTCCTTGGGTTCTAACCTGTTGCCT (site TCACGTCCTAC)”, the “recombinant barcode read abundance (log10)” value amounted to 0.0778. With “TCACGTCCTTGGGTTCTAACCTGTTGCCT (site TCACGTCCTAG)”, the “recombinant barcode read abundance (log10)” value was 0.456. Consider “TCACGTCCTTGGGTTCTAACCTGTTGCCT (site TCACGTCCTAT)”, for which the “recombinant barcode read abundance (log10)” value is 0.144. The figure for “TCACTAGCTTGGGTTCTAACCTGTTGCCT (site TCACTAGCTAG)” is 0.0596; for “TCACTAGCTTGGGTTCTAACCTGTTGCCT (site TTACGAGCTAG)” it is 0; for “TCAGACCCTTGGGTTCTAACCTGTTGCCT (site TAAGACCCTAG)” it is 0.417. The result for “TCAGACCCTTGGGTTCTAACCTGTTGCCT (site TCAGACCCTAG)” reads 2.31; that for “TCAGAGGCTTGGGTTCTAACCTGTTGCTG (site TCAGAGGCTCA)”, 0.623.
